# Reference: US8357636B2, “Alkoxylated alkylamines/alkyl ether amines with peaked distribution” (Akzo Nobel N.V., priority 2004, dated 2013)
# Experiment: Effect of EO adduct added to 62% K-glyphosate solution (clear or hazy)
# Assay type: physicochemical
# Conditions: ~25% added into a 62% K-glyphosate solution
# Text: Therefore, even a slight reduction in concentration of the higher EO adduct could improve the cloud point of glyphosate formulation dramatically.
smiles,measurement,value
OCCOCCO [diethylene glycol],Appearance of solution after addition,clear solution
